# Reference: ChEMBL document CHEMBL1201862, “PubChem BioAssay data set” (2004)
# The source made the active and inactive calls.
# Key:
# [1] = StAR promoter reporter inhibition counter-screen, dose response, counter-screen for LRH-1 inverse agonist project, cell-based, luminescence, luciferase reporter (AID 651969); assay type: functional
# [2] = target: Nuclear receptor subfamily 5 group A member 2 (Homo sapiens, UniProt O00482); assay type: functional, cell-based;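 note: HEK293T cells transfected with LRH-1 and a StAR promoter luciferase reporter; potency for inhibitors that lower LRH-1 driven reporter light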
# [3] = microbe, parasite or virus in culture; assay type: functional; settings: Mycobacterium tuberculosis
# Steroidogenic factor 1 = Steroidogenic factor 1 (Homo sapiens, UniProt Q13285); experiment: Counterscreen for inverse agonists of the liver receptor homolog-1 (LRH-1; NR5A2): Luminescence-based cell-based high throughput dose response assay to identify inverse agonists of the Steroidogenic Factor 1 Nuclear Receptor (SF1; NR5A1).; assay type: functional
# [4] = target: T1, DNA repair and recombination protein RAD54-like (Homo sapiens, UniProt Q92698); experiment: inhibitors of human RAD54 branch migration, confirmation, biochemical, fluorescence, cherry-picked samples, dose series (AID 651657); assay type: functional
# T1 sequence (Q92698 whole entry): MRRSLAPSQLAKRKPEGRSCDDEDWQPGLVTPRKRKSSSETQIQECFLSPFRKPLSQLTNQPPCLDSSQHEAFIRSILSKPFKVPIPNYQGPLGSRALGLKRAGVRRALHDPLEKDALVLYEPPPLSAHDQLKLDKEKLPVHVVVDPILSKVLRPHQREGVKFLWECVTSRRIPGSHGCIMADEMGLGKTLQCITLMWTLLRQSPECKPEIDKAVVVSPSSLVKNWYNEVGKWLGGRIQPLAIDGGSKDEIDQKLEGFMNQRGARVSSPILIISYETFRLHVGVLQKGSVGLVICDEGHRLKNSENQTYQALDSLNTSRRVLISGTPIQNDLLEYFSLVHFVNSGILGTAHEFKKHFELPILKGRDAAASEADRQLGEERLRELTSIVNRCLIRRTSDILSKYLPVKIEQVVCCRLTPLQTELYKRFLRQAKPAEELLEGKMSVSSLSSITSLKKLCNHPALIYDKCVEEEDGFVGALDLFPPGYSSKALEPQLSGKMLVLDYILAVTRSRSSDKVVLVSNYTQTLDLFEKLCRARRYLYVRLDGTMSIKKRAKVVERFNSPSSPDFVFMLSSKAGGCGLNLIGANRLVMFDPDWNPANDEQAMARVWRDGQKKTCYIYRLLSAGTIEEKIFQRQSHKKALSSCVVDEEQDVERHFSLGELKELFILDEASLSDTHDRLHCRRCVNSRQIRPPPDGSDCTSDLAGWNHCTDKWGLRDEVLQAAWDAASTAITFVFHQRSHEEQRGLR
# [5] = CRF-BP/CRF-R2 complex antagonists, dose response, cell-based, uHTS hits, 384-well (AID 651639); assay type: functional, Homo sapiens; settings: read-out: IC50_Mean
# [6] = target: T2, Corticotropin-releasing factor receptor 2/Corticotropin-releasing factor-binding protein (Homo sapiens, UniProt P24387+Q13324); experiment: Dose Response confirmation of uHTS hits for small molecule antagonists of the CRF-binding protein and CRF-R2 receptor complex.; assay type: functional; settings: read-out: IC50_Mean
# T2 sequence (Q13324 whole entry): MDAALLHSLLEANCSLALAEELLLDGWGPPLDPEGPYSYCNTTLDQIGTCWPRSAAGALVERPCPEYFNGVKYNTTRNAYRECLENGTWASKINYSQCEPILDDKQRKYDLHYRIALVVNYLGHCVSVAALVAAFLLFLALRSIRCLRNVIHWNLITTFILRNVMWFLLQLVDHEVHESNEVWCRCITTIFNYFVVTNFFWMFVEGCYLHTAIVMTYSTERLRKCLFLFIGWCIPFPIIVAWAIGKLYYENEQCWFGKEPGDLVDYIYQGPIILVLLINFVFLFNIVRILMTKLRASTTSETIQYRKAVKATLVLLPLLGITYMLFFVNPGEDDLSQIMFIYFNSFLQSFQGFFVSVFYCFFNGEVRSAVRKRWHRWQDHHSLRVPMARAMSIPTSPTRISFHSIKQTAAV
# T2 sequence (P24387 whole entry): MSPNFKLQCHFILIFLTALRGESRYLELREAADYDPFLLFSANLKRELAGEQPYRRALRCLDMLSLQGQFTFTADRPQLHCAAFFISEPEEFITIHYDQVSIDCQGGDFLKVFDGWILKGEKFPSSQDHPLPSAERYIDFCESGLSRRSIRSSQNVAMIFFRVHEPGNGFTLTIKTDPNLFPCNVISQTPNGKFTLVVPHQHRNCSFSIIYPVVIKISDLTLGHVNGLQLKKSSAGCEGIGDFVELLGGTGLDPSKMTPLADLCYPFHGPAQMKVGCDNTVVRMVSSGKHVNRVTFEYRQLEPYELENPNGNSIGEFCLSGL
# [7] = target: T2, Corticotropin-releasing factor receptor 2/Corticotropin-releasing factor-binding protein; experiment: activators of CRF receptor 2 with binding protein – uHTS hits, confirmation (AID 602473); assay type: functional; settings: read-out: EC50_Mean
# Insulin-degrading enzyme [8] = target: T3, Insulin-degrading enzyme (Homo sapiens, UniProt P14735); experiment: activators of endogenous IDE in HEK cells, dose response, cell-based, fluorescence polarization (AID 588439); assay type: functional
# T3 sequence (P14735 whole entry): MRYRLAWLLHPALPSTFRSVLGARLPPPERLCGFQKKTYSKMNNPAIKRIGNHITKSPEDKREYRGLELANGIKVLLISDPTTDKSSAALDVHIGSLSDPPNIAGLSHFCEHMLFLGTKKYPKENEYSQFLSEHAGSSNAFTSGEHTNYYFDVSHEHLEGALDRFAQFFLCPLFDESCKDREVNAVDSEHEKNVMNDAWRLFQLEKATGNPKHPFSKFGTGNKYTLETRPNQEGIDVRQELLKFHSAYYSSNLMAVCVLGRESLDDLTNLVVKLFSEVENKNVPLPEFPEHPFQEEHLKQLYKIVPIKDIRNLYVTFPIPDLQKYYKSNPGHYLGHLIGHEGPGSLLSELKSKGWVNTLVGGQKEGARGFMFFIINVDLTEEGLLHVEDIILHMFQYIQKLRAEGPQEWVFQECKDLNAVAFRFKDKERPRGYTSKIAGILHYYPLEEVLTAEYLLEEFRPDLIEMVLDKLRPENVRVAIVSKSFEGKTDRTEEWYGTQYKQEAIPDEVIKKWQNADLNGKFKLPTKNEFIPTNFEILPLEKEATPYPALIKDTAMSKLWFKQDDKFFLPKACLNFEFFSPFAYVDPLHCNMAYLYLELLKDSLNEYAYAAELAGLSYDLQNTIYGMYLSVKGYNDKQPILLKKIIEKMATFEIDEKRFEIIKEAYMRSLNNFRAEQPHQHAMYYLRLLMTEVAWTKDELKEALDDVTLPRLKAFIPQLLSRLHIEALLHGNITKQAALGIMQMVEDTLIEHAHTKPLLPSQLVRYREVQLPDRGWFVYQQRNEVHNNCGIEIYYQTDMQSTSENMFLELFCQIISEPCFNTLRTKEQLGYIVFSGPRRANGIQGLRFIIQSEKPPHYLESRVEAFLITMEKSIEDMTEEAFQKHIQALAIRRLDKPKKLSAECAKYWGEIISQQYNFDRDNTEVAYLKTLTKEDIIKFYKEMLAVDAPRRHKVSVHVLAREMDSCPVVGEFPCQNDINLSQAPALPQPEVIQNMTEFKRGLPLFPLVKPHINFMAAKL
# [9] = inhibitors of SNCA 5'UTR-driven reporter translation, confirmation, H4 neuroglioma cells, luminescence (AID 1988); assay type: functional, cell-based
# [10] = Luminescence Cell-Based Dose Response HTS to Identify Inhibitors of 5'UTR Stem-Loop Driven Prion Protein mRNA Translation in H4 Neuroglioblastoma Cells. [Related pubchem assays: 1827 (Project Summary), 1813 (Primary HTS)]; assay type: functional
# HEK293 [11] = experiment: optical interference in Abeta FP readout, dose response, artefact control for IDE activator project, biochemical, fluorescence polarization (AID 588442); assay type: functional, cell-based; settings: Homo sapiens
# HEK293 [12] = experiment: HEK cell cytotoxicity by LDH release, dose response, cytotoxicity control for IDE activator project, fluorescence, HEK cells (AID 588440); assay type: functional, cell-based; settings: Homo sapiens;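 note: cytotoxicity by LDH release measuring loss of membrane integrity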
# [13] = cytotoxicity in HEK-293T cells, dose response, cytotoxicity control for TCR NF-kB inhibitor project, luminescence, T-cell screen hits (AID 489026); assay type: functional, cell-based;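 note: cells exposed to compound about 14 hours before the viability readout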
# Insulin-degrading enzyme [14] = target: T3, Insulin-degrading enzyme; experiment: activators of recombinant IDE enzyme, dose response, counter-screen for IDE activator project, biochemical, fluorescence polarization (AID 588681)
# [15] = target: Heat shock protein HSP 90-alpha (Homo sapiens, UniProt P07900); assay type: functional, organism-based
# [16] = target: T4, DNA repair protein RAD52 homolog (Homo sapiens, UniProt P43351); assay type: functional, biochemical
# T4 sequence (P43351 whole entry): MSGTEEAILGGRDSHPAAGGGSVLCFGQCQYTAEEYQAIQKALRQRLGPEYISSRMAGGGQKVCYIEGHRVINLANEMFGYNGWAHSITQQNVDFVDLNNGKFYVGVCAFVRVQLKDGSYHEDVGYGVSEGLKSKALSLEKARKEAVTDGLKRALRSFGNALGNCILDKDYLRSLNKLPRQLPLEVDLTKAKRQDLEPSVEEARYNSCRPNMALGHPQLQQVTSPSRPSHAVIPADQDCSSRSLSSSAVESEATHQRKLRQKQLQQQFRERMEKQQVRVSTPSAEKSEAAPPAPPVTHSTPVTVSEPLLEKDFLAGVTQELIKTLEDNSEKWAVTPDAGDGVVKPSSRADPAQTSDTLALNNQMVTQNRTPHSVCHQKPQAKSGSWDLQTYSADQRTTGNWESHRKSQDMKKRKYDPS
# [17] = target: T5, Sentrin-specific protease 8 (Homo sapiens, UniProt Q96LD8); assay type: functional
# T5 sequence (Q96LD8 whole entry): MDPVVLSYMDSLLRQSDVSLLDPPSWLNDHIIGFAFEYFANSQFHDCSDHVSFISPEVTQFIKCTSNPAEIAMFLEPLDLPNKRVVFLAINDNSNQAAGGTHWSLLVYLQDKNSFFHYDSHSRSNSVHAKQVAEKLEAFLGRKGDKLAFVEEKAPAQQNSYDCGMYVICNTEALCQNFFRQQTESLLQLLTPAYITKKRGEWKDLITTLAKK
# [18] = target: T5, Sentrin-specific protease 8; assay type: functional; remark: listed apart in the source
# [19] = intracellular Trypanosoma cruzi inhibitors in host cells – cell-based, plate reader, cherry-pick samples, set 3, dose response (AID 651818); assay type: functional;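 note: compounds incubated with infected cells for about four days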
# Sequence of Nuclear receptor subfamily 5 group A member 2 (O00482 whole entry): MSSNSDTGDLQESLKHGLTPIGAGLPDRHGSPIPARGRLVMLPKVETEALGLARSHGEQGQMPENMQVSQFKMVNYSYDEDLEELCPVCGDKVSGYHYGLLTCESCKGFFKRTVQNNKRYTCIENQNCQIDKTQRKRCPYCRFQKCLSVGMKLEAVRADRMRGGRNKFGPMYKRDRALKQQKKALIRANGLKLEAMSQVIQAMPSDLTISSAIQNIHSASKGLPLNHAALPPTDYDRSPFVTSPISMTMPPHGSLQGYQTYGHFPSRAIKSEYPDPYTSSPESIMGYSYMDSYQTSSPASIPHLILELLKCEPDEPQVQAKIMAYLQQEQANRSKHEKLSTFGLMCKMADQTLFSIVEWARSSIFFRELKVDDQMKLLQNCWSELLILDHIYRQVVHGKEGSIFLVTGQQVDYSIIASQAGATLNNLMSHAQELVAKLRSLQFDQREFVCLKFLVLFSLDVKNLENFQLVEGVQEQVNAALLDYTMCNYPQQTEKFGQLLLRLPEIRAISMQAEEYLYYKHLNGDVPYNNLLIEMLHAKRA
# Sequence of Steroidogenic factor 1 (Q13285 whole entry): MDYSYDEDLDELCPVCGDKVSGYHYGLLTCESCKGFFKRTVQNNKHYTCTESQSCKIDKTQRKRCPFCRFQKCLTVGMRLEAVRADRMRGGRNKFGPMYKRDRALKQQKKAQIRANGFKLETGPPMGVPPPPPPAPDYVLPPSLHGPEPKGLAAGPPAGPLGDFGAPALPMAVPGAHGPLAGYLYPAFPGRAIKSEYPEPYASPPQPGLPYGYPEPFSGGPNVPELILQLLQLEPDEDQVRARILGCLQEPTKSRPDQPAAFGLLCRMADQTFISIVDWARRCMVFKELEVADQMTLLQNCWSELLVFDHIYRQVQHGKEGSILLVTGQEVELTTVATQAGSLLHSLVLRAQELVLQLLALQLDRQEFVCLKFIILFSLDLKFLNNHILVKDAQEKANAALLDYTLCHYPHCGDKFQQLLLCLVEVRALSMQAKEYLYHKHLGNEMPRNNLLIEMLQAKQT
structure (smiles),measurement,setting,value
COc1ccccc1NC(=O)c1ccc(NC(=O)CSc2nnnn2C)cc1,IC50,[1],35.9 µM (inactive)
same,IC50,[2],0.437 µM (active)
same,CC50,[3],> 40 µM (active)
same,IC50,Steroidogenic factor 1,0.77 µM (active)
CN(C)CCCNc1nc(-c2ccc(Cl)cc2)nc2ccccc12,AC50,[4],22.5 µM (active)
O=C(c1ccco1)N1N=C(c2cccs2)CC1c1ccccc1O (centres undefined),IC50,[5],12.8 µM (active)
same,IC50,[6],6.11 µM (active)
same,EC50,[7],> 53 µM (inactive)
COc1cc(NC(=O)N2CCNC2=O)cc(C(=O)Nc2cccc(C(F)(F)F)c2)c1,EC50,Insulin-degrading enzyme [8],> 54.7 µM (inactive)
same,EC50,[9],6.31 µM (active)
same,EC50,[10],9.79 µM (active)
same,EC50,HEK293 [11],> 54.7 µM (inactive)
same,IC50,HEK293 [12],> 89.2 µM (inactive)
same,IC50,[13],> 80 µM (inactive)
same,EC50,Insulin-degrading enzyme [14],> 54.7 µM (inactive)
Cc1ccc(O)c(NC(=S)NC(=O)COc2ccc(Br)cc2)c1,EC50,Insulin-degrading enzyme [8],> 54.7 µM (inactive)
same,EC50,HEK293 [11],> 55.9 µM (inactive)
same,IC50,HEK293 [12],10.7 µM (inactive)
same,EC50,Insulin-degrading enzyme [14],> 54.7 µM (inactive)
same,EC50,[7],7 µM (active)
COc1cc2nc3c(O)n(CCN(C(C)C)C(C)C)cnc-3c2cc1OC,AC50,[4],47.7 µM (active)
O=C(c1ccc([N+](=O)[O-])cc1)N(Cc1ccccc1)Cc1ccccc1,IC50,[5],> 20 µM (inactive)
same,IC50,[6],8.56 µM (active)
same,EC50,[7],> 53 µM (inactive)
COc1cc(OC)cc(C(=O)N[C@H](C(=O)OCC(=O)Nc2ccc3c(c2)OCO3)C(C)C)c1,IC50,[1],35.9 µM (inactive)
same,IC50,[2],4.71 µM (active)
same,IC50,Steroidogenic factor 1,5.72 µM (active)
CCCCCCCCCCCCCCCC[n+]1ccccc1,AC50,[15],2.73 µM (active)
same,AC50,[16],5.71 µM (active)
COc1ccc(CCNC(=O)COC(=O)Cc2ccccc2[N+](=O)[O-])cc1,IC50,[1],35.9 µM (inactive)
same,IC50,[2],35.9 µM (inactive)
same,IC50,Steroidogenic factor 1,2.36 µM (active)
O=C(Nc1c(-c2ccccc2)n[nH]c1O)c1cccc(C(F)(F)F)c1,IC50,[17],65.3 µM (inactive)
same,IC50,[18],87.3 µM (inactive)
C[C@@H]1CN([C@H](C)CO)C(=O)Cc2cc(N(C)C)ccc2O[C@H]1CN(C)Cc1ccc(C(=O)Nc2ccccc2N)cc1,AC50,[19],3.46 µM (active)
C[C@@H]1CN([C@H](C)CO)C(=O)Cc2cc(NC(=O)C3CCCCC3)ccc2O[C@@H]1CN(C)Cc1ccc(Cl)c(Cl)c1,AC50,[19],2.15 µM (active)
C[C@H](CO)N1C[C@H](C)[C@H](CN(C)Cc2ccc(-c3ccccc3)cc2)Oc2ccc(NC(=O)Cc3cn(C)c4ccccc34)cc2C1=O,AC50,[19],15 µM (active)
O=C(COC(=O)c1ccc([N+](=O)[O-])o1)NC12CC3CC(CC(C3)C1)C2,IC50,[17],6.85 µM (active)
same,IC50,[18],5.13 µM (active)
